Assay results: paper PMC11959975 (Acta Pharmaceutica Sinica. B, 2025)

What was measured:
[1] = test system: arteriovenous shunt thrombosis model in rats; assay: Arteriovenous shunt thrombosis model in rats; type: in vivo; conditions: 10 mg/kg, i.v.
mice = assay: Bleeding time of tail clipping in mice; type: in vivo; conditions: 5 mg/kg
MCAO model of SD rats [2] = assay: Rat model of chronic ischemic stroke; type: in vivo; conditions: chronic IS rats
MCAO model of SD rats [3] = assay: Rat model of acute ischemic stroke; type: in vivo; conditions: acute IS rats, 10 mg/kg
[4] = test system: permanent cerebral ischemic stroke in rats; assay: Rat model of permanent ischemic stroke; type: in vivo, SD rats; conditions: permanent IS rats

Row | SMILES | inhibition (%) of dry thrombus [1] | inhibition (%) of wet thrombus [1] | Bleeding time (mice) | reduction of cerebral infarction volume (MCAO model of SD rats [2]; 5.0 mg/kg) | misstep frequency (grid test) (MCAO model of SD rats [2]; day 14 after modeling) | reduction of cerebral infarction volume vs model group (MCAO model of SD rats [3]) | reduction of cerebral infarction volume vs model group ([4]; 10 mg/kg) | NSS value ([4]; day 1 after surgery)
1 | CCCC[C@@H]1OC(=O)c2ccccc21 [S-NBP] | 25.95% | 33.24% | – | – | – | – | – | –
2 | CC(=O)Oc1ccccc1C(=O)O [ASP, O-acetoxybenzoic acid] | 39.67% | 40.74% | 22.52 ± 1.31 min | – | – | – | – | –
3 | CCCCC1OC(=O)c2ccccc21 (stereo not drawn) [NBP, R,S-3-n-butylphthalide] | – | – | – | 32% | significantly higher than that in the sham group | 35% | 7% | lower than that of the model group but without significant difference
4 | CCCCC(O)c1ccccc1C(=O)[O-].[K+] (stereo not drawn) [PHPB, potassium 2-(1-hydroxypentyl)-benzoate] | 11.32% | 15.39% | – | – | – | – | – | –
